Like-named read-outs stand apart in the source and are kept apart here.
What was measured:
PxutCSP19 [1] = target: T1, PxutCSP19 (Papilio xuthus, UniProt A0A194QJK0); assay: Binding of fluorescent probe 1-NPN to wildtype PxutCSP19 (titration, Scatchard)
Description: (§1) In order to investigate the ligand-binding properties of PxutCSP19 to host odorants and insecticides, we first asked whether this fluorescent probe 1-NPN was available for the binding of PxutCSP19. To calculate the binding ability of PxutCSP19 to 1-NPN, we titrated different final concentrations of 1-NPN (2~20 μM) into Tris-HCl buffer (pH 7.4) containing 2 μM PxutCSP19. The binding constant (K1-NPN) of 1-NPN to this protein was determined with GraphPad Prism 7 (GraphPad Software Inc., San Diego, CA), as previously described. The solution was excited at 337 nm and the emission peak was monitored at 414 nm on an RF-5301PC spectrofluorometer (Shimadzu, Kyoto, Japan) using a quartz micro-cuvette filled with a 100 μL mixture, with 5 nm excitation and emission slit widths. If the host odorant molecules could displace more than 40% of the 1-NPN fluorescence from the binding cavity of PxutCSP19, the compounds would be continuously added up to 36 μM with triplicates. For the binding experiments, each compound would be added into the PxutCSP19/1-NPN (each 2 μM) complex with final concentrations of 2~20 μM. […]

PxutCSP19-T1 [2] = target: T2, PxutCSP19-T1 (Papilio xuthus, UniProt A0A194QJK0); assay: Binding of fluorescent probe 1-NPN to PxutCSP19-T1 (titration, Scatchard); conditions: read-out: K1-NPN (binding constant of 1-NPN)
T2 sequence (A0A194QJK0 35-142): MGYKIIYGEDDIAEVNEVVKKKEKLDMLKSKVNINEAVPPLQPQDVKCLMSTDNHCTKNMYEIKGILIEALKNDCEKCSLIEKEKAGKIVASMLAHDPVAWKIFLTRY
Description: as §1

PxutCSP19-T2 [3] = target: T3, PxutCSP19-T2 (Papilio xuthus, UniProt A0A194QJK0); assay: Binding of fluorescent probe 1-NPN to PxutCSP19-T2 (titration, Scatchard); conditions: read-out: K1-NPN (binding constant of 1-NPN)
T3 sequence (A0A194QJK0 53-142): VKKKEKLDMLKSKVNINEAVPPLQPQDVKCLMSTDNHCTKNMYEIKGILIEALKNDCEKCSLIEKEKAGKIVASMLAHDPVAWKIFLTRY
Description: as §1

PxutCSP19 [4] = target: T1, PxutCSP19; assay: Fluorescence competitive binding assay (1-NPN displacement), wildtype PxutCSP19; conditions: for inhibition at 20 µM: read-out: F.D. (fluorescent displacement rate of ligands), Wildtype (WT); for inhibition at 20 µM / F.D. (fluorescent displacement rate of ligands): ligand at 20 μM, PxutCSP19/1-NPN each 2 μM, NB = no binding
From the text: The open reading frame (ORF) of PxutCSP19 was cloned with a PrimeSTAR®® Max DNA Polymerase (TaKaRa, Liaoning, Dalian, China) and gene-specific primers containing restriction enzyme sites (BamH I and Xho I) (Table S2). The PCR products were detected on a 1.5% (w/v) agarose gel, and the expected bands were cut and purified using a HiPure Gel Pure DNA Mini Kit (Magen, Guangzhou, China). Next, BamH I and Xho I were used to digest the PxutCSP19 products and pET-30a (+) plasmids, followed by purification. A T4 DNA ligase (Thermo Fisher Scientific, Waltham, MA, USA) was applied to the construction of the recombinant plasmids pET-30a (+)/PxutCSP19. After being confirmed by sequencing, the plasmids were transformed into BL21 (DE3) competent cells so as to express recombinant proteins with 1.0 mM isopropyl β-D-thiogalactoside (IPTG). Because this recombinant protein pET-30a (+)/PxutCSP19 was insoluble, we applied a protein denaturation–renaturation approach to purify PxutCSP19 with an affinity chromatography technique, in which the denaturation buffer included 8 M urea and 1.0 mM β-mercaptoethanol.
(§2) In order to investigate the ligand-binding properties of PxutCSP19 to host odorants and insecticides, we first asked whether this fluorescent probe 1-NPN was available for the binding of PxutCSP19. To calculate the binding ability of PxutCSP19 to 1-NPN, we titrated different final concentrations of 1-NPN (2~20 μM) into Tris-HCl buffer (pH 7.4) containing 2 μM PxutCSP19. The binding constant (K1-NPN) of 1-NPN to this protein was determined with GraphPad Prism 7 (GraphPad Software Inc., San Diego, CA), as previously described. The solution was excited at 337 nm and the emission peak was monitored at 414 nm on an RF-5301PC spectrofluorometer (Shimadzu, Kyoto, Japan) using a quartz micro-cuvette filled with a 100 μL mixture, with 5 nm excitation and emission slit widths. If the host odorant molecules could displace more than 40% of the 1-NPN fluorescence from the binding cavity of PxutCSP19, the compounds would be continuously added up to 36 μM with triplicates. For the binding experiments, each compound would be added into the PxutCSP19/1-NPN (each 2 μM) complex with final concentrations of 2~20 μM. […] We used the Ki values to compare the binding affinities of various ligands with the equation: Ki = [IC50]/(1 + [1-NPN]/K1-NPN), where IC50 represents the ligand concentrations displacing one half of the initial protein/1-NPN fluorescence, and [1-NPN] is the free concentration of 1-NPN at 2 μM.

PxutCSP19-T1 [5] = target: T2, PxutCSP19-T1; assay: Fluorescence competitive binding assay (1-NPN displacement), truncated PxutCSP19-T1; conditions: for inhibition at 20 µM: T1 (17 N-terminal residues truncated), ligand at 20 μM, read-out: F.D. (fluorescent displacement rate of ligands); for Ki: Ki = [IC50]/(1 + [1-NPN]/K1-NPN)
Description: as §2
(§3) To determine the effects of an extended N-terminal sequence (approximately 35 amino acids) on the binding specificity of PxutCSP19 to ligands, we next constructed two truncated PxutCSP19s. Firstly, the front 17 amino acids (i.e., EITIGGIERTMSPGVKS, defined as PxutCSP19-T1) and the front 35 amino acids (i.e., […], defined as PxutCSP19-T2) of the N-terminal region without the signal peptide were truncated, respectively. Secondly, the two truncated ORFs (PxutCSP19-T1: 360 bp and PxutCSP19-T2: 306 bp) of PxutCSP19s were separately amplified using RT–PCR with gene-specific primers (Table S2). After that, the amplified products were sub-cloned into pET-30a (+), i.e., pET-30a (+)/PxutCSP19-T1 and pET-30a (+)/PxutCSP19-T2. Using the above-described methods for the expression and purification of proteins, we obtained two truncated proteins. Furthermore, the binding characteristics of the truncated PxutCSP19s to ligands with high affinities were investigated, representing six host odorants and eight insecticides.

PxutCSP19-T2 [6] = target: T3, PxutCSP19-T2; assay: Fluorescence competitive binding assay (1-NPN displacement), truncated PxutCSP19-T2; conditions: for inhibition at 20 µM: T2 (35 N-terminal residues truncated), ligand at 20 μM, read-out: F.D. (fluorescent displacement rate of ligands); for Ki: Ki = [IC50]/(1 + [1-NPN]/K1-NPN)
Description: as §2, §3

[7] = Wildtype (WT), ligand up to 20 μM or 36 μM, displacing half of protein/1-NPN fluorescence, read-out: IC50

T1 sequence (A0A194QJK0 entry or part of it): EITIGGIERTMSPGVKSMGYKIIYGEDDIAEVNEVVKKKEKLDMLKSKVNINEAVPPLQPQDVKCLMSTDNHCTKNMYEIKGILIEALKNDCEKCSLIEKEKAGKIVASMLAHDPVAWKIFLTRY

IC50 (PxutCSP19 [4])	Ki (PxutCSP19-T1 [5]; T1)	IC50 (PxutCSP19-T1 [5]; T1, read-out: IC50)	Ki (PxutCSP19-T2 [6]; T2)	IC50 (PxutCSP19-T2 [6]; T2, read-out: IC50)	Molecule	inhibition at 20 µM (PxutCSP19 [4])	inhibition at 20 µM (PxutCSP19-T1 [5])	inhibition at 20 µM (PxutCSP19-T2 [6])	also measured
–	–	–	–	–	c1ccc(Nc2cccc3ccccc23)cc1 [1-NPN, N-phenyl-1-naphthylamine]	–	–	–	Kd (PxutCSP19 [1]): 2650 ± 350 nM; Kd (PxutCSP19-T1 [2]): 2120 ± 470 nM; Kd (PxutCSP19-T2 [3]): 2500 ± 250 nM
34.5 ± 1.11 µM	21.7 ± 0.44 µM	34.5 ± 0.7 µM	22.8 ± 0.42 µM	34.6 ± 0.64 µM	CCCCCCCCO [1-Octanol]	> 40%	43.5%	42.7%	–
33.8 ± 0.84 µM	20.8 ± 0.85 µM	33.1 ± 1.34 µM	22.8 ± 0.59 µM	34.6 ± 0.9 µM	C=CC(C)(O)CCC=C(C)C (stereo not shown) [Linalool]	> 40%	39.8%	40.3%	–
34 ± 1.46 µM	21.84 ± 0.02 µM	34.75 ± 0.03 µM	22.2 ± 0.56 µM	33.8 ± 0.85 µM	CC(C)=CCC/C(C)=C\CO [Nerol]	> 40%	39.4%	40.8%	–
31.3 ± 1.73 µM	19.9 ± 1.17 µM	31.7 ± 1.86 µM	21.6 ± 0.72 µM	32.8 ± 1.09 µM	C=C/C(C)=C/CC=C(C)C [Ocimene]	> 40%	43.1%	35.2%	–
31 ± 0.97 µM	17.7 ± 0.84 µM	28.1 ± 1.33 µM	18.8 ± 0.74 µM	28.6 ± 1.12 µM	COc1cc(C=O)cc(OC)c1O [Syringaldehyde]	> 40%	42.7%	42.2%	–
34.1 ± 1.31 µM	21.14 ± 0.1 µM	33.64 ± 0.16 µM	20.8 ± 1.1 µM	31.6 ± 1.67 µM	CC1=CCC(=C(C)C)CC1 [Terpinolene]	> 40%	40.1%	38.5%	–
–	–	–	–	–	C=C1CC/C=C(\C)CC[C@@H]2[C@@H]1CC2(C)C [β-Caryophyllene]	–	–	–	binding with PxutCSP19 (in words) (PxutCSP19 [4]; wildtype): no binding
–	–	–	–	–	C=C[C@]1(C)CC[C@@H](C(=C)C)C[C@H]1C(=C)C [β-Elemene]	–	–	–	binding with PxutCSP19 (in words) (PxutCSP19 [4]; wildtype): no binding
> 20 µM	–	–	–	–	C=C1CCC2CC1C2(C)C (stereo not drawn) [β-Pinene]	31.2%	–	–	–
> 36 µM	–	–	–	–	CC1=CCC(C(C)C)=CC1 [γ-Terpinene]	> 40%	–	–	1-NPN fluorescence displaced (PxutCSP19 [4]; wildtype, ligand at 36 μM): less than 50%
–	–	–	–	–	Emamectin benzoate [reference compound]	–	–	–	F.D. (fluorescent displacement rate of ligands) (PxutCSP19 [4]; Wildtype (WT)): 46.98%; IC50 (PxutCSP19 [4]; [7]): > 20 µM
–	–	–	–	–	Farnesene	–	–	–	F.D. (fluorescent displacement rate of ligands) (PxutCSP19 [4]; Wildtype (WT)): 23.21%; IC50 (PxutCSP19 [4]; [7]): > 20 µM

Molecule	IC50 (PxutCSP19 [4])	Ki (PxutCSP19-T1 [5]; T1)	IC50 (PxutCSP19-T1 [5]; T1, read-out: IC50)	Ki (PxutCSP19-T2 [6]; T2)	IC50 (PxutCSP19-T2 [6]; T2, read-out: IC50)	inhibition at 20 µM (PxutCSP19 [4])	inhibition at 20 µM (PxutCSP19-T1 [5])	inhibition at 20 µM (PxutCSP19-T2 [6])	also measured
CCOCn1c(-c2ccc(Cl)cc2)c(C#N)c(Br)c1C(F)(F)F [Chlorfenapyr]	10.71 ± 0.09 µM	6.47 ± 0.27 µM	10.3 ± 0.43 µM	6.68 ± 0.45 µM	10.1 ± 0.68 µM	58.7%	63.8%	64.3%	–
O=C(NC(=O)c1c(F)cccc1F)Nc1cc(Cl)c(Oc2ncc(C(F)(F)F)cc2Cl)c(Cl)c1 [Chlorfluazuron]	11.9 ± 1.04 µM	7.99 ± 0.94 µM	12.7 ± 1.49 µM	8.88 ± 0.4 µM	13.5 ± 0.6 µM	60.5%	54.7%	57%	–
CCOP(=S)(OCC)Oc1nc(Cl)c(Cl)cc1Cl [Chlorpyrifos]	5.52 ± 0.16 µM	–	–	–	–	75.1%	70.3%	73.2%	IC50 (PxutCSP19-T1 [5]): 5.87 ± 0.47 µM; IC50 (PxutCSP19-T2 [6]): 5.32 ± 0.4 µM
O=C(NC(=O)c1c(F)cccc1F)Nc1cc(Cl)c(OC(F)(F)C(F)F)c(Cl)c1 [Hexaflumuron]	12.1 ± 2.36 µM	7.78 ± 0.46 µM	12.4 ± 0.73 µM	8.02 ± 1.03 µM	12.2 ± 1.56 µM	59.5%	56.5%	59.6%	–
COC(=O)N(C(=O)N1CO[C@@]2(C(=O)OC)Cc3cc(Cl)ccc3C2=N1)c1ccc(OC(F)(F)F)cc1 [Indoxacarb]	10.8 ± 0.65 µM	7.08 ± 0.26 µM	11.3 ± 0.41 µM	7.98 ± 0.37 µM	12.1 ± 0.56 µM	61.5%	59.1%	62.5%	–
CN(C)C(CSS(=O)(=O)O)CSS(=O)(=O)O [Monosultap]	–	11.1 ± 0.46 µM	17.6 ± 0.73 µM	11.8 ± 0.67 µM	17.9 ± 1.02 µM	53.6%	54.8%	61%	Ki (PxutCSP19 [4]; Wildtype (WT), Ki = [IC50]/(1 + [1-NPN]/K1-NPN)): 11.1 ± 0.66 µM; IC50 (PxutCSP19 [4]; Wildtype (WT), ligand up to 20 μM or 36 μM, displacing half of protein/1-NPN fluorescence): 16.8 ± 1.01 µM
CCOP(=S)(OCC)O/N=C(\C#N)c1ccccc1 [Phoxim]	2.63 ± 0.12 µM	–	–	–	–	87.3%	83.1%	84.8%	IC50 (PxutCSP19-T1 [5]): 2.66 ± 0.2 µM; IC50 (PxutCSP19-T2 [6]): 3.16 ± 0.35 µM
C=C(C)[C@H]1Cc2c(ccc3c2O[C@@H]2COc4cc(OC)c(OC)cc4[C@@H]2C3=O)O1 [Rotenone]	9.15 ± 0.76 µM	–	–	–	–	67.6%	61.8%	64.4%	IC50 (PxutCSP19-T1 [5]): 11.12 ± 0.04 µM; IC50 (PxutCSP19-T2 [6]): 11.3 ± 0.58 µM

Reference: publication PMC11276849, “A Female-Biased Chemosensory Protein PxutCSP19 in the Antennae of Papilio xuthus Tuned to Host Volatiles and Insecticides” (Insects, 2024)
